Where “and” joins values, the source holds several entries; their conditions need not be identical. Equal values may be shown once.
Legend:
[1] = tested on: hematological malignant cell lines; assay: Viability assay (MTS), panel of hematological malignant cell lines; format: cell-based
Description: (§1) This method is to determine the viability of a liquid tumor cell line following treatment with a test compound. Tumor cells are maintained in suspension at log phase growth. On the day of use, cells are resuspended to a density of 0.05 to 0.1 million/ml and cells are incubated in 96 well plate with the test compounds for 96 hours. Viability of cells was measured by incubating cells with Promega's MTS reagent. The viability of the cell is proportional to the change in absorbance at 490 nm. By comparing the absorbance between control and compound-treated cells, the impact of the test compounds on the cell viability is determined as a percent of the control cell viability.
(§2) Harvest cells in complete RPMI from log-phase cultures at densities of approximately 0.3-0.7 million/ml. Count cells and adjust to 0.1 million/ml in phenol red free cRPMI (For fast growing cells with doubling time of equal or less than 24 hours, e.g. K562, use 0.05 million/ml instead to avoid over-growing).
(§3) Transfer triplicates of 100 μl of cells to the wells of 96-well clear plates for a total of 10000 cells/well. Note that each well already contains 10 μl of 10× concentrated test compound prepared as above.
(§4) Incubate cells for 72-96 hours at 37° C. in a tissue culture incubator containing 5% CO2.
1. […]
4. Incubate at 370 C until the absorbance at 490 nm for the control cells is >1.5. […]

[2] = tested on: Collagen-induced arthritis (CIA); assay: Rat collagen induced arthritis, therapeutic dosing; format: in vivo
Description: (§5) Immunization and Challenge: Female Lewis rats were immunized on day 0 and challenged on day 7 with cII from bovine nasal mixed with Freund's incomplete adjuvant at a final collagen concentration of 1.0 mg/ml. The animals were injected at the base of the tail with 400 μg of cII.
Therapeutic Dosing Regimen: The compound of Formula I (10 and 30 mg/kg, p.o., b.i.d.) was orally administered starting on day 12 and continued through day 21.
(§6) Joint Pathology Ankle joint swelling was measured to the nearest 0.01 mm by using electronic digital calipers. Measurements were recorded 7 times throughout the study starting on day 6 and ending on day 21. Body weights were recorded on the same days. On day 21, hind paws were removed at the hairline just above the ankle and fixed in 10% neutral buffered formalin.
MicroCT analysis: Ankle joints were examined using a cone-beam μCT scanner. […] In ankle joints, the ratio of bone surface to bone volume, describing the complexity of bone surface in a certain volume, was analyzed.
Statistical Analysis For joint swelling/inflammation, data were analyzed using Everstat v.5 software and a 2-way repeated measure ANOVA with Dunnett's post test. MicroCT data were analyzed by Everstat using a 1-way ANOVA and Newman-Keuls multiple comparison test. […]

[3] = tested on: Collagen-induced arthritis (CIA); assay: Rat collagen induced arthritis, prophylactic dosing; format: in vivo; conditions: vs vehicle
Description: as §5
Prophylactic Dosing Regimen: The compound of Formula I (3.0, 10, and 30 mg/kg) was orally dosed (p.o.) twice daily (b.i.d.) starting on day 6 and continued through day 21.
as §6
MicroCT analysis: Ankle joints were examined using a cone-beam μCT scanner. A scout view scan was obtained first for selection of the examination volume of the specimens, followed by positioning, measurement and computational reconstruction. In ankle joints, the ratio of bone surface to bone volume, describing the complexity of bone surface in a certain volume, was analyzed.
Statistical Analysis For joint swelling/inflammation, data were analyzed using Everstat v.5 software and a 2-way repeated measure ANOVA with Dunnett's post test. MicroCT data were analyzed by Everstat using a 1-way ANOVA and Newman-Keuls multiple comparison test. Data are presented as the mean±SEM and p values of <0.05 are considered significant.

JVM-2 = assay: Viability assay of liquid tumor cell lines (MTS); format: cell-based; conditions: JVM-2 (B-CLL), N = 4, listed as A003397769, 10 µM
Description: as §1, §2, §3, §4
(§7) 1. Thaw the Promega's MTS reagent and add 20 ul to each well with a repeat pipetor.
(§8) 4. Incubate at 370 C until the absorbance at 490 nm for the control cells is >1.5.
(§9) 5. Calculate the averaged compound-treated cell data as a percent of the averaged control cell data as follows: (Compound-treated value/control value)*100=% of control value Results: […]

DLCL-2 = assay: Viability assay of liquid tumor cell lines (MTS); format: cell-based; conditions: DLCL-2 (B-NHL), N = 4
Description: as §1, §2, §3, §4, §7, §8, §9

HL-60 = assay: Viability assay of liquid tumor cell lines (MTS); format: cell-based; conditions: HL-60 (AML), N = 4
Description: as §1, §2, §3, §4, §7, §8, §9

K562 = assay: Viability assay of liquid tumor cell lines (MTS); format: cell-based; conditions: K562 (CML), N = 4
Description: as §1, §2, §3, §4, §7, §8, §9

L-363 = assay: Viability assay of liquid tumor cell lines (MTS); format: cell-based; conditions: L-363 (MM), N = 4
Description: as §1, §2, §3, §4, §7, §8, §9

DOHH-2 = assay: Viability assay of liquid tumor cell lines (MTS); format: cell-based; conditions: DOHH-2 (B-NHL), N = 4
Description: as §1, §2, §3, §4, §7, §8, §9

ML-2 = assay: Viability assay of liquid tumor cell lines (MTS); format: cell-based; conditions: ML-2 (AML), N = 4
Description: as §1, §2, §3, §4, §7, §8, §9

Granta-519 = assay: Viability assay of liquid tumor cell lines (MTS); format: cell-based; conditions: Granta-519 (MCL), N = 4
Description: as §1, §2, §3, §4, §7, §8, §9

RPMI8226 = assay: Viability assay of liquid tumor cell lines (MTS); format: cell-based; conditions: RPMI8226 (MM), N = 4
Description: as §1, §2, §3, §4, §7, §8, §9

Nalm-6 = assay: Viability assay of liquid tumor cell lines (MTS); format: cell-based; conditions: Nalm-6 (B-ALL), N = 4
Description: as §1, §2, §3, §4, §7, §8, §9

Jurl-MK1 = assay: Viability assay of liquid tumor cell lines (MTS); format: cell-based; conditions: Jurl-MK1 (CML), N = 4
Description: as §1, §2, §3, §4, §7, §8, §9

Jurkat = assay: Viability assay of liquid tumor cell lines (MTS); format: cell-based; conditions: Jurkat (T-ALL), N = 4; for IC50: MTS assay
Description: as §1, §2, §3, §4, §7, §8, §9

Jeko-1 = assay: Viability assay of liquid tumor cell lines (MTS); format: cell-based; conditions: Jeko-1 (MCL), N = 4
Description: as §1, §2, §3, §4, §7, §8, §9

KG-1 = assay: Viability assay of liquid tumor cell lines (MTS); format: cell-based; conditions: KG-1 (AML), N = 4
Description: as §1, §2, §3, §4, §7, §8, §9

In the case of `CCc1c(-c2ccc(C(C)(C)O)cc2)[nH]c2nccnc12` [compound of Formula I, 2-[4-(7-Ethyl-5H-pyrrolo[2,3-b]pyrazin-6-yl)-phenyl]-propan-2-ol], the “anti-proliferation activity in the two MCL cell lines” value ([1]; Jeko-1 and Granta-519) is reported as “consistently active”, the “hematological malignant cell lines against which the compound is inhibitory” value ([1]; MTS assay, panel of Table 4) is reported as 6 out of 15 and the “bone erosion (ratio of bone surface to bone volume), MicroCT” value ([2]; 10 mg/kg or 30 mg/kg, therapeutic dosing, vs vehicle) is reported as “significant decrease in bone erosion”. For the same compound, the ankle swelling/inflammation ([2]; 10 and 30 mg/kg p.o. b.i.d. from day 12, day 15-21) was “significantly reduced ankle swelling/inflammation”, the ankle swelling/inflammation ([3]; 3.0 mg/kg p.o. b.i.d. day 6-21, on day 12 only) was “significantly reduced ankle swelling/inflammation” and the ankle swelling/inflammation ([3]; 10 mg/kg p.o. b.i.d. day 6-21, on days 12 through 19) was “significantly reduced ankle swelling/inflammation”. For the same compound, the ankle swelling/inflammation ([3]; 30 mg/kg p.o. b.i.d. day 6-21, from day 12 through day 21) was “significantly reduced ankle swelling/inflammation”, the “bone erosion (ratio of bone surface to bone volume), MicroCT” value ([3]; 3, 10 or 30 mg/kg b.i.d.) was “significant reductions in bone erosion” and the “% Inhibition at max. conc. (10 uM)” value (JVM-2) was 60% and 59%. The “% Inhibition at max. conc. (10 uM)” value (DLCL-2) was 0%, the “% Inhibition at max. conc. (10 uM)” value (HL-60) was 35% and the “% Inhibition at max. conc. (10 uM)” value (K562) was 21%. For the same compound, the IC50 (L-363; Homo sapiens, MTS assay) was 5.5 µM, the “% Inhibition at max. conc. (10 uM)” value (L-363; 10 uM) was 61% and the “% Inhibition at max. conc. (10 uM)” value (DOHH-2; 10 uM) was 75%. For the same compound, the IC50 (DOHH-2; Homo sapiens, MTS assay) was 4.5 µM, the IC50 (ML-2; Homo sapiens, MTS assay) was over 10 µM and the “% Inhibition at max. conc. (10 uM)” value (ML-2; 10 uM) was 28%. For the same compound, the “% Inhibition at max. conc. (10 uM)” value (Granta-519; 10 uM) was 67%, the IC50 (Granta-519; Homo sapiens, MTS assay) was 3.4 µM and the IC50 (RPMI8226; Homo sapiens, RPMI-8226, MTS assay) was over 10 µM. For the same compound, the “% Inhibition at max. conc. (10 uM)” value (RPMI8226; 10 uM) was 36%, the IC50 (Nalm-6; Homo sapiens, MTS assay) was 5.5 µM and the “% Inhibition at max. conc. (10 uM)” value (Nalm-6; 10 uM) was 84%. For the same compound, the “% Inhibition at max. conc. (10 uM)” value (Jurl-MK1) was 28%, the IC50 (Jurkat; Homo sapiens, Jurkat) was 6.8 µM and the “% Inhibition at max. conc. (10 uM)” value (Jurkat; 10 uM) was 43%. For the same compound, the IC50 (Jurkat; listed as A003397769) was over 10 µM, the IC50 (Jeko-1; Homo sapiens, MTS assay) was 3.1 µM and the “% Inhibition at max. conc. (10 uM)” value (Jeko-1; 10 uM) was 97%. The IC50 (KG-1; Homo sapiens, MTS assay) was 1.9 µM and the “% Inhibition at max. conc. (10 uM)” value (KG-1; 10 uM) was 91%.

Reference: patent publication US8658649B2, “Kinase inhibitor” (Sanofi, priority 2006, dated 2014)
